Laboratory results: US9623031B2, “Compositions, methods and kits for treating cancer” (priority 2011, dated 2017)
Entries after “also recorded” stand apart in the source; their conditions may differ.

Assays:
[1] = test system: BCR-ABL^+LSC (Kit^+Sca1^+Lin^−GFP^+); test: Apoptosis of BCR-ABL+ LSCs treated ex vivo (annexin V, flow cytometry); type: cell-based, mouse
Protocol: Apoptosis. Apoptosis of LSCs was performed using annexin V as described below in Supplementary Information and Methods.
Apoptosis. The LSCs were diluted in DMEM, resuspended using a 16-gauge needle, and collected by centrifugation. 1×10^5 cells were resuspended in 200 μl of binding buffer (0.1 M HEPES with 1.4 M NaCl, 25 mM CaCl2, pH 7.4). Annexin V FITC (BD Biosciences) was incubated with cells for 15 min on ice followed by flow cytometric analysis.
The ability of CyPGs derived from arachidonic acid (2 series PGs) to induce apoptosis was tested in cultures of LSCs from FV infected mice and in the murine CML model. […] 15d-PGJ2 is known as a PPAPγ agonist. […] In FIG. 7C Δ^12-PGJ3, 15d-PGJ2 or 9,10-dihydro-15d-PGJ2 are tested for their ability to induce apoptosis in a murine CML model. […] The cells were stained with annexin V-FITC and analyzed by flow cytometry. Representative of N=4. […] Inset: Effect of rosiglitazone on the apoptosis of LSC. Rosiglitazone (0.1-2.0 μM) was incubated with LSC in the culture media for 36 h as described earlier and the cells were subjected to annexin-V staining followed by flow cytometry. […] LSC were treated ex vivo with indicated concentrations of each compound for 36 h.
Following 36 h of incubation, apoptotic cells were quantified by annexin V staining. […] In a related study to address if Δ^12-PGJ3 treatment would cause any degranulation of granulocytes, a rat basophilic cell line ([…]) was treated with 100 nM Δ^12-PGJ3 and the degranulation was followed by quantitating the release of histamine and a second marker of degranulation, hexoseaminidase.
In this experiment, 500,000 BCR-ABL+ LSCs were plated in a 24-well plate followed and were treated with 25 nM PGD2Me or 100 nM ZK118182 (both are agonists of DP) for 24 h. GFP^+ cells were analyzed by flow cytometry. These agonists were purchased from Cayman Chemicals, MI.

[2] = target: T1, ligand-binding domain of human PPAPγ fused to yeast GAL4 DNA binding domain (Homo sapiens, UniProt P37231); test: PPARγ reporter assay in HEK293T cells (GAL4 fusion, pGalRE-Luc); type: cell-based; details: 0.01 μM to 1.0 μM
T1 construct: expressed in transfected cells; host or cells: HEK293T
T1 sequence (P37231 238-503 limits assumed): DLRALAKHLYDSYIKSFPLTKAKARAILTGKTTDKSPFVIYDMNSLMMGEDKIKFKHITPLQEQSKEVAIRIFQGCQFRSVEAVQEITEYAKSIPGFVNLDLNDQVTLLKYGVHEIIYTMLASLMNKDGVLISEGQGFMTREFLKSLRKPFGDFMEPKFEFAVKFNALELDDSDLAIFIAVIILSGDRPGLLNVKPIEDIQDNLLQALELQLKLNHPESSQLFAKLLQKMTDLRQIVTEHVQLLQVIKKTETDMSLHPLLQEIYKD

p53 = p53 expression in FV-LSCs treated ex vivo (RT-PCR, nuclear extracts); type: cell-based, mouse; details: 12 h
MCL-1 = MCL-1 expression in primary AML cells (real time PCR); type: cell-based, human
Protocol: MCL-1 expression in Δ^12-PGJ3 treated AML was examined. MCL-1 is an antiapoptotic gene that belongs to the Bcl-2 family. Total RNA and cDNA were isolated from primary AML cells as indicated above. MCl-1 expression was measured using real time PCR. (Hs01050896-ml, Applied Biosystems).

[3] = test system: Human unfractionated bone marrow cells
Protocol: Human unfractionated bone marrow cells (5×10^5 per well) were plated in methylcellulose complete media containing IL-3, GM-CSF, G-CSF, SCF and Epo supplemented with the indicated concentrations of drugs. Total colonies were counted after 12 days.

**Q.** `CC/C=C\C[C@H](O)C/C=C1/C(=O)C=C[C@@H]1C/C=C\CCCC(=O)O` [Δ^12-PGJ3, Δ^12-prostaglandin J3] was tested. Which “apoptosis of BCR-ABL+LSCs” value ([1]; 25 nM, annexin V, caspase 3 and caspase 8 activation) did it give?
**A.** Its value is “significant increase in apoptosis; also recorded: highly susceptible to apoptosis”.

**Q.** And the “apoptosis of Sca1+GFP+Kit+ BCR-ABL+LSC from spleen” value ([1]; 25-1000 nM, 36 h)?
**A.** Its value is “significantly increased their apoptosis”.

**Q.** What about the IC50 ([1]; Kit+Sca1+Lin−GFP+ LSCs from spleen of BCR-ABL mice, ex vivo 36 h, annexin V) of the same compound?
**A.** The IC50 was about 12 nM.

**Q.** What about the “PPARγ activation in reporter assay” value [2] of the same compound?
**A.** The value was “unable to activate PPARγ”.

**Q.** What about the “p53 expression at transcript level” value (p53; 10 or 25 nM) of the same compound?
**A.** The value was “significant upregulation of p53 expression”.

**Q.** What about the “nuclear levels of p53 protein” value (p53; sorted LSC) of the same compound?
**A.** Its value is “increase in the nuclear levels of p53 protein”.

**Q.** What about the MCL-1 expression (MCL-1) of the same compound?
**A.** The MCL-1 expression was “decreases the expression MCL1”.

**Q.** What about the “total colonies of human bone marrow cells” value [3] of the same compound?
**A.** The value was “had no effect”.
